Results on four compounds are retold here after patent publication US11136409B2, “Compositions and methods for identification, assessment, prevention, and treatment of AML using USP10 biomarkers and modulators” (Dana-Farber Cancer Institute, Inc., priority 2016, dated 2021).

Read-outs that look alike come from different tables or passages of the source.

The test system of test [1] is U937. In words: Anti-proliferation, 24 hr treatment (CellTiter-Glo). Type of test: cell-based, human. As to conditions: read-out: Anti-proliferation IC50. The text has this: (§1) Nomo-1, P31-FUJ, and NB4 were obtained from Dr. Gary Gilliland. MV4, 11 cells were obtained from Dr. Anthony Letai. Hel, K562, THP, U937, TF-1 and K052 cells were purchased from the American Type Culture Collection (ATCC) (Manassas, Va., USA). […] Cell lines were submitted for cell line authentication and were authenticated within 6 months of manuscript preparation through cell line short tandem repeat (STR) profiling (DDC Medical, Fairfield, Ohio and Molecular Diagnostics Laboratory, Dana Farber Cancer Institute). […] PBMCs were generously provided by Dr. Steven Treon and Dr. Guang Yang.
(§2) The CellTiter-Glo® assay (Promega, Madison, Wis.) was used for proliferation studies and carried out according to manufacturer instructions. Cell viability is reported as percentage of control (untreated) cells, and error bars represent the standard error of the mean for each data point.
Background: In ATP-based viability assays light output follows the ATP content of the culture.

Test [2] has as its system K562. Described as above. Type of test: cell-based, human. As to conditions: read-out: Anti-proliferation IC50.
From the text: as §1, §2

Test [3] concerns MOLM14. Described as above. It is filed as cell-based, human. As to conditions: read-out: Anti-proliferation IC50.
From the text: as §1, §2

In test [4] the test system is HEL. The description is as above. It is filed as cell-based, human. As to conditions: read-out: Anti-proliferation IC50.
From the text: as §1, §2

The subject of test [5] is MV4,11. The description is as above. It is filed as cell-based, human. As to conditions: read-out: Anti-proliferation IC50.
From the text: as §1, §2

Test [6] concerns NOMO-1. Described as above. It is filed as cell-based, human. As to conditions: read-out: Anti-proliferation IC50.
From the text: as §1, §2

Test [7] has as its system P31. Described as above. Type of test: cell-based, human. As to conditions: read-out: Anti-proliferation IC50.
From the text: as §1, §2

The test system of test [8] is TF-1. The description is as above. It is filed as cell-based, human. As to conditions: read-out: Anti-proliferation IC50.
From the text: as §1, §2

Test [9] deals with OCI-AML5. The test is described as above. As to conditions: read-out: Anti-proliferation IC50. It is filed as cell-based, human.
From the text: as §1, §2

For test [10], the system named is K052. The test is described as above. Type of test: cell-based, human. As to conditions: read-out: Anti-proliferation IC50.
From the text: as §1, §2

The subject of test [11] is NB4-luc+. The description is as above. Type of test: cell-based, human. As to conditions: read-out: Anti-proliferation IC50.
From the text: as §1, §2

The subject of test [12] is MOLM13-luc+. Described as above. It is filed as cell-based, human. As to conditions: read-out: Anti-proliferation IC50.
From the text: as §1, §2

The target in test [13] is USP7 (Homo sapiens, UniProt Q93009). As to the kind of experiment: USP7 IC50 of HBX19818 analogs (Table 9). Type of test: biochemical. As to conditions: read-out: USP7 IC50 +/− SEM.
Chain of USP7 (Q93009 whole entry): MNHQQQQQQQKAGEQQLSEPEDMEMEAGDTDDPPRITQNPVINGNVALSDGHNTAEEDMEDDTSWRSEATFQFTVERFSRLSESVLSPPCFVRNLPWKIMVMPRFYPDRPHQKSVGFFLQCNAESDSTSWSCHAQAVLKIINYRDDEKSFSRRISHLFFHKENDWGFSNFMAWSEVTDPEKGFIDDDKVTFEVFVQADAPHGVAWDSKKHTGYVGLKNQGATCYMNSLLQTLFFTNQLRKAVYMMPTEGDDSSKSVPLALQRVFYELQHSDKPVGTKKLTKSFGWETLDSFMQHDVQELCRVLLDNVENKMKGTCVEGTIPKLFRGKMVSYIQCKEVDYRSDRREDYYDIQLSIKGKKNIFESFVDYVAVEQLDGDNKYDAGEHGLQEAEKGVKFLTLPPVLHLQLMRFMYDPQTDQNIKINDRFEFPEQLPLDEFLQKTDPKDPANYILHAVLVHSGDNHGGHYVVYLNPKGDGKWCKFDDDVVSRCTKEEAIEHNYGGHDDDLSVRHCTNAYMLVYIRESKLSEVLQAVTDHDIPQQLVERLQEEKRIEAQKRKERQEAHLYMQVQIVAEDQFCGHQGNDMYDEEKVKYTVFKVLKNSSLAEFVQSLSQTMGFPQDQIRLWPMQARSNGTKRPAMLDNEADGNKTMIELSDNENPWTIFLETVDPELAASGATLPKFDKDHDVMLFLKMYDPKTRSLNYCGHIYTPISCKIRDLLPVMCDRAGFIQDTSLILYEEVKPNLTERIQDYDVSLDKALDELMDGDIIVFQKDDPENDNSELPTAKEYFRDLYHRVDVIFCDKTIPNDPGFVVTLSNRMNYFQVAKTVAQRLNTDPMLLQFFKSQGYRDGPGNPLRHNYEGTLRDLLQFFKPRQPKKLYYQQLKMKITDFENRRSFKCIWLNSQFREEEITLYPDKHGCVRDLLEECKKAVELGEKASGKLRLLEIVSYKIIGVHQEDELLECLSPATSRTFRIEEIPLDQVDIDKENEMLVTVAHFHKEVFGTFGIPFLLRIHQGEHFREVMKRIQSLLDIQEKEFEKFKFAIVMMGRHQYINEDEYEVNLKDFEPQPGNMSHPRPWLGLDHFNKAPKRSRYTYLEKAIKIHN
Test [14] concerns Ba/F3-FLT3-ITD cells. In words: Immunoblot of FLT3 / Beclin-1 in Ba/F3-FLT3-ITD cells. It is filed as cell-based, murine. As to conditions: for FLT3 protein levels: immunoblot, Ba/F3-FLT3-ITD cells. The source says: The following antibodies were purchased from Cell Signaling Technology (Danvers, Mass.): total AKT (rabbit, #9272) and total p44/42 MAPK (Erk1/2) (3A7) (mouse, #9107) were used at 1:1000 dilution. Anti-GAPDH (D16H-11) XP (R) (rabbit mAb, #5174) was used at 1:1000 dilution. Beclin-1 (rabbit, #3738) was used at 1:1000. USP10 (D7A5) (rabbit, #8501) was used at 1:1000 dilution. P53 (rabbit, #9282) was used at 1:1000 dilution. β-tubulin (rabbit, #2146s) was used 1:1000.
FLT3/Flk-2 (C-20) (sc-479) and Ub (P4D1) (mouse, sc-8017) were purchased from Santa Cruz Biotechnology, Inc. (Dallas, Tex.) and used at 1:1000 dilution for immunoblotting. Anti-pTyr (mouse, clone 4G10) was purchased from Upstate Biotechnology (Lake Placid, N.Y.) and was used at 1:1000 dilution. Anti-HAUSP/USP7 antibody (rabbit, ab4080) and anti-ubiquitin antibody (rabbit, ab7780) were purchased from Abcam (Cambridge, Mass.) and used at 1:1000 dilution.
Protein lysate preparation, immunoblotting, and immunoprecipitation were carried out as previously described in Weisberg et al. (2002) Cancer Cell 1:433-443.
On the technique in general: A western blot detects proteins with antibodies after separation by electrophoresis.

Test [15] relates to AML primagraft (D835Y+, FLT3-ITD+) cells. In words: Treatment of mutant FLT3-expressing AML primagraft cells ex vivo. As to conditions: read-out: IC50 (+/−S.D.) AML primagraft (D835Y+, FLT3-ITD+). It is filed as cell-based, human. As to the method:
All animal studies were performed according to protocols approved by the Dana-Farber Cancer Institute's Institutional Animal Care and Use Committee. […] Mice were sacrificed on day 21 of treatment. Bone marrow was flushed from mouse femurs, and spleens and livers were dissected and preserved first in formalin, followed 24 hours later by preservation in 70% ethanol. […] All AML primagraft samples used in the studies described herein were obtained through the Public Repository of Xenografts (proxe.org).
as §2

In test [16] the test system is PBMCs. In words: Treatment of PBMCs from healthy donors with USP10-targeting inhibitors. Type of test: cell-based, human.
From the text: as §1, §2

Where [17] appears, read: 24 hr treatment, U937 (FLT3 wt or null).
Setting [18] is: 24 hr treatment, K562 (FLT3 wt or null).
Where [19] appears, read: 24 hr treatment, MOLM14 (FLT3-ITD).
[20] abbreviates: 24 hr treatment, HEL (FLT3 wt or null).
Setting [21] is: 24 hr treatment, MV4,11 (FLT3-ITD).
Where [22] appears, read: 24 hr treatment, NOMO-1 (FLT3 wt or null).
Setting [23] is: 24 hr treatment, P31 (FLT3 wt or null).
Where [24] appears, read: 24 hr treatment, TF-1 (FLT3 null).
[25] abbreviates: 24 hr treatment, OCI-AML5 (FLT3 wt or null).
The mark [26] stands for this setting: 24 hr treatment, K052 (FLT3 wt or null).
[27] abbreviates: 24 hr treatment, NB4-luc+ (FLT3 wt or null).
Where [28] appears, read: 24 hr treatment, MOLM13-luc+ (FLT3-ITD).
Setting [29] is: 24 hr assay, PBMC#1, read-out: IC50 (+/−S.D.) PBMC#1.
Setting [30] is: 24 hr assay, PBMC#2, read-out: IC50 (+/−S.D.) PBMC#2.
[31] abbreviates: 72 hr assay, PBMC#1, read-out: IC50 (+/−S.D.) PBMC#1.
[32] abbreviates: 72 hr assay, PBMC#2, read-out: IC50 (+/−S.D.) PBMC#2.

Consider `CCCN(CCC)CCCNC(=O)c1ccc2c(Cl)c3c(nc2c1)CCCC3` [C598-0466], for which the IC50 in test [1] (setting [17]) came out at 12.9 µM; in test [2] (setting [18]) it was 13.3 µM; in test [3] (setting [19]), 5.2 µM; in test [4] (setting [20]) it was 16.8 µM; in test [5] (setting [21]) it was 4.1 µM; in test [6] (setting [22]) it was 8.3 µM. The IC50 in [7] (setting [23]) came out at 13.9 µM; in test [8] (setting [24]), 10.7 µM; in test [9] (setting [25]), 8.6 µM; in test [10] (setting [26]), 11.6 µM; in test [11] (setting [27]), 10.2 µM; in test [12] (setting [28]) it was 2.9 µM. Further, the IC50 in test [13] was determined as 3.6 µM; in test [15] (24 hr assay), 4.1 µM; in [15] (72 hr assay) it was 0.6 µM; in test [16] (setting [29]), 10.5 µM; in test [16] (setting [30]), 10.5 µM; in [16] (setting [31]) it was 4.8 µM. Also, in test [16] (setting [32]), the IC50 was determined as 3.1 µM. In [14], the FLT3 protein levels result is given as “induces FLT3 degradation at lower concentrations”.
For the compound `O=C(NCCCN1CCN(Cc2ccccc2)CC1)c1ccc2nc3c(c(Cl)c2c1)CCCC3` [C598-0563], the IC50 is 13.7 µM in test [1] (setting [17]); 15.9 µM in test [2] (setting [18]); 9.9 µM in test [3] (setting [19]); 19.6 µM in test [4] (setting [20]); 9.7 µM in test [5] (setting [21]); 10.7 µM in test [6] (setting [22]). Moreover, the IC50 in test [7] (setting [23]) turned out to be 10.6 µM; in test [8] (setting [24]), 10 µM; in [9] (setting [25]), 17 µM; in [10] (setting [26]) it was 14.5 µM; in [11] (setting [27]) it was 13.6 µM; in test [12] (setting [28]), 8.8 µM. The IC50 in test [13] stood at 50 µM; in test [15] (24 hr assay), 12.2 µM; in test [15] (72 hr assay) it was 2.8 µM; in test [16] (setting [29]), 22.9 µM; in [16] (setting [30]) it was 44.4 µM; in test [16] (setting [31]) it was 15.6 µM. Besides, the IC50 in [16] (setting [32]) worked out at 7.9 µM. For the same compound, the FLT3 protein levels result in [14] is “induce loss of FLT3 at similar concentrations”.
With `CCN(CCCNC(=O)c1ccc2nc3c(c(Cl)c2c1)CCC3)Cc1ccccc1` [C673-0105], the IC50 in test [1] (setting [17]) came out at 16.2 µM; in test [2] (setting [18]) it was 23.7 µM; in [3] (setting [19]), 10.1 µM; in [4] (setting [20]) it was 34.4 µM; in [5] (setting [21]), 7.5 µM; in test [6] (setting [22]), 12.7 µM. Further, the IC50 turned out to be 29 µM in [7] (setting [23]); 12.5 µM in test [8] (setting [24]); 19.5 µM in test [9] (setting [25]); 23.5 µM in test [10] (setting [26]); 24.5 µM in [11] (setting [27]); 7.9 µM in test [12] (setting [28]). For the same compound, the IC50 was more than 100 µM in test [13]; 8.5 µM in test [15] (24 hr assay); 3.1 µM in test [15] (72 hr assay); 17.2 µM in [16] (setting [29]); 17.4 µM in test [16] (setting [30]); 10 µM in test [16] (setting [31]). Moreover, the IC50 in [16] (setting [32]) stood at 7.3 µM.
As for `CN(CCCNC(=O)c1ccc2nc3c(c(Cl)c2c1)CCCC3)Cc1ccccc1` [HBX19818, reference compound], the IC50 in test [1] (Homo sapiens, U-937, 24 h) came out at 20.7 µM; in [2] (Homo sapiens, K562, 24 h), 18.5 µM; in test [3] (Homo sapiens, MOLM-14, 24 h) it was 9.6 µM; in test [4] (Homo sapiens, HEL, 24 h) it was 25.7 µM; in test [5] (Homo sapiens, MV4-11, 24 h) it was 8.1 µM; in test [6] (Homo sapiens, NOMO-1, 24 h), 16.1 µM. In addition, the IC50 in test [7] (Homo sapiens, 24 h) amounted to 18.2 µM; in test [8] (Homo sapiens, TF-1, 24 h), 12.8 µM; in test [9] (Homo sapiens, OCI-AML-5, 24 h) it was 17.9 µM; in test [10] (Homo sapiens, K052, 24 h), 16.6 µM; in test [11] (Homo sapiens, 24 h), 16.4 µM; in [12] (Homo sapiens, 24 h), 4.4 µM. In addition, the IC50 turned out to be 9.8 µM in [15] (Homo sapiens, 24 hr assay); 1.9 µM in test [15] (Homo sapiens, 72 hr assay); 25.5 µM in [16] (Homo sapiens, PBMC, 24 h, read-out: IC50 (+/−S.D.) PBMC#1); 24.1 µM in [16] (Homo sapiens, PBMC, 24 h, read-out: IC50 (+/−S.D.) PBMC#2); 12.4 µM in [16] (Homo sapiens, PBMC, 72 h, read-out: IC50 (+/−S.D.) PBMC#1); 7.3 µM in test [16] (Homo sapiens, PBMC, 72 h, read-out: IC50 (+/−S.D.) PBMC#2). Also, in test [14] (20 μM), the “Protein levels of Beclin-1 and FLT3” value is “strongly decreased”. Besides, the FLT3 protein levels entry in test [14] is “loss of FLT3 protein”.
